In ChEMBL document CHEMBL1201862, “PubChem BioAssay data set” (2004):
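A five-concentration, 48-hour dose response in 96-well plates underlies each endpoint, interpolated linearly between surrounding concentrations. The concentration for 50% growth inhibition is given as GI50.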 The source made the active and inactive calls. Rule as the data show it: active = GI50 up to about 1.1 µM and inactive = higher.

Columns and labels:
Test in all cases: growth of human tumour cells (NCI), 48 h
TK-10 = tested on: TK-10
DLD-1 = tested on: DLD-1
MOLT-4 = tested on: MOLT-4
CCRF-CEM = tested on: CCRF-CEM
M19-MEL = tested on: M19-MEL
HOP-18 = tested on: HOP-18
ACHN = tested on: ACHN
DMS-273 = tested on: DMS-273
SF-539 = tested on: SF-539
M14 = tested on: M14
SK-MEL-2 = tested on: SK-MEL-2
Malme-3M = tested on: Malme-3M
SNB-19 = tested on: SNB-19
K562 = tested on: K562
HCT-15 = tested on: HCT-15
SK-OV-3 = tested on: SK-OV-3
KM-20L2 = tested on: KM-20L2
HL-60 = tested on: HL-60
HOP-62 = tested on: HOP-62
SK-MEL-5 = tested on: SK-MEL-5
UACC-257 = tested on: UACC-257
HOP-92 = tested on: HOP-92
LXFL 529 = tested on: LXFL 529
SN12C = tested on: SN12C
HCC 2998 = tested on: HCC 2998
CAKI-1 = tested on: CAKI-1
SF-295 = tested on: SF-295
OVCAR-3 = tested on: OVCAR-3
U-251 = tested on: U-251
RXF 393 = tested on: RXF 393
HT-29 = tested on: HT-29
786-0 = tested on: 786-0
SW-620 = tested on: SW-620
OVCAR-4 = tested on: OVCAR-4
NCI-H460 = tested on: NCI-H460
UACC-62 = tested on: UACC-62
UO-31 = tested on: UO-31
SK-MEL-28 = tested on: SK-MEL-28
RPMI-8226 = tested on: RPMI-8226
A549 = tested on: A549
RXF 631 = tested on: RXF 631
SNB-75 = tested on: SNB-75
KM12 = tested on: KM12
LOX IMVI = tested on: LOX IMVI
SF-268 = tested on: SF-268
NCI-H522 = tested on: NCI-H522
EKVX = tested on: EKVX
DMS-114 = tested on: DMS-114
NCI-H23 = tested on: NCI-H23
OVCAR-5 = tested on: OVCAR-5
IGROV-1 = tested on: IGROV-1
OVCAR-8 = tested on: OVCAR-8
COLO 205 = tested on: COLO 205
XF498 = tested on: XF498
SR = tested on: SR
NCI-H226 = tested on: NCI-H226
HCT-116 = tested on: HCT-116
SNB-78 = tested on: SNB-78

Measured: GI50

O=C(O)c1ccccc1C1c2ccc(Cl)cc2Oc2cc(Cl)ccc21
> 100 µM: HCT-15
inactive: TK-10 > 100 µM | DLD-1 > 100 µM | MOLT-4 > 100 µM | CCRF-CEM > 100 µM | M19-MEL > 100 µM | HOP-18 > 100 µM | ACHN > 100 µM | DMS-273 > 100 µM | SF-539 > 100 µM | M14 > 100 µM | SK-MEL-2 > 100 µM | Malme-3M > 100 µM | SNB-19 > 100 µM | K562 > 100 µM | SK-OV-3 > 100 µM | KM-20L2 > 100 µM | HL-60 > 100 µM | HOP-62 > 100 µM | SK-MEL-5 > 100 µM | UACC-257 > 100 µM | HOP-92 > 100 µM | LXFL 529 > 100 µM | SN12C > 100 µM | HCC 2998 > 100 µM | CAKI-1 > 100 µM | SF-295 > 100 µM | OVCAR-3 > 100 µM | U-251 > 100 µM | RXF 393 > 100 µM | HT-29 > 100 µM | 786-0 > 100 µM | SW-620 > 100 µM | OVCAR-4 > 100 µM | NCI-H460 > 100 µM | UACC-62 > 100 µM | UO-31 > 100 µM | SK-MEL-28 > 100 µM | RPMI-8226 > 100 µM | A549 > 100 µM | RXF 631 > 100 µM | SNB-75 > 100 µM | KM12 > 100 µM | LOX IMVI > 100 µM | SF-268 > 100 µM | NCI-H522 > 100 µM | EKVX > 100 µM | DMS-114 > 100 µM | NCI-H23 > 100 µM | OVCAR-5 > 100 µM | IGROV-1 > 100 µM | OVCAR-8 > 100 µM | COLO 205 > 100 µM

Cc1ccc(OCC(=O)N2N=C(c3ccccc3)CC2(O)c2ccccc2)cc1 (stereo not given)
inactive: TK-10 > 100 µM | DLD-1 27.9 µM | MOLT-4 7.89 µM | M19-MEL 44.6 µM | ACHN > 100 µM | DMS-273 20.8 µM | SF-539 43 µM | M14 34.4 µM | SK-MEL-2 > 100 µM | Malme-3M > 100 µM | SNB-19 > 100 µM | K562 20.2 µM | SK-OV-3 > 100 µM | KM-20L2 18 µM | HL-60 27.8 µM | HOP-62 27.8 µM | XF498 > 100 µM | SR 9.44 µM | UACC-257 > 100 µM | NCI-H226 25.9 µM | HOP-92 55.2 µM | HCT-116 > 100 µM | LXFL 529 19.3 µM | SN12C 17.3 µM | HCC 2998 > 100 µM | CAKI-1 > 100 µM | SF-295 76 µM | OVCAR-3 33.3 µM | U-251 13 µM | HT-29 > 10 µM | 786-0 16.4 µM | SW-620 51.6 µM | OVCAR-4 18.5 µM | NCI-H460 15 µM | UACC-62 43.4 µM | UO-31 > 100 µM | SK-MEL-28 80 µM | RPMI-8226 16.6 µM | A549 20.5 µM | RXF 631 26.9 µM | SNB-75 55.3 µM | KM12 99.5 µM | LOX IMVI 99.5 µM | SF-268 > 100 µM | NCI-H522 > 100 µM | NCI-H23 22.6 µM | SNB-78 22.1 µM | OVCAR-5 18.1 µM | IGROV-1 39.4 µM | OVCAR-8 91.2 µM | COLO 205 28.2 µM
> 100 µM: HCT-15
